Converted amounts (≈) assume the structure as drawn.
Assay: physchem
Settings: for solubility / solubility at 18 h: 25 °C
Description: To measure the SVE of a drug, saturated solutions of the drug are prepared in methanol and chloroform. An appropriate means of preparing a saturated solution is to suspend approximately 60 mg of drug in 3 ml of the solvent and stir for 24 hours at room temperature. If all of the drug dissolves during this time, further 10 mg aliquots should be added until a suspension is again formed. After 24 hours, the suspension are centrifuged or filtered to separate drug in solution from undissolved particulate drug. The drug solutions are assayed for drug content by an appropriate means, eg. high performance liquid chromatography, and the saturated solubility calculated. The SVE is calculated by dividing the solubility in chloroform by the solubility in methanol and expressed as weight in volume (w/v).
Into each of two 10 ml bottles was weighed 60 mg of itraconazole. To one bottle was added 3 ml of chloroform. […] Further itraconazole was added in 100 mg aliquots until a suspension was formed. […] To the other bottle was added 3 ml of methanol. A magnetic stirrer bar was added to each bottle and the contents were left to stir on a magnetic stirrer. After being left overnight to stir (18 hours), the contents of each bottle were filtered through a 0.1 μm PTFE filter (Whatman). […] To assay the methanol filtrate for itraconazole content, 1 ml was diluted to 5 ml with the same diluent used for the chloroform analysis. Both samples were assayed for itraconazole content using reverse-phase high performance liquid chromatography.

[1] = oil or lipid, Solubility (mg/ml) Vitamin E
[2] = organic solvent or mixture, thermodynamic from solid, Solubility (mg/ml) Chloroform
[3] = organic solvent or mixture, thermodynamic from solid, Solubility (mg/ml) Methanol

SMILES	Solubility (mg/ml) Water	solubility [1]	solubility [2]	solubility [3]	other results
CC(C)[C@@H](C)/C=C/[C@@H](C)[C@H]1CC[C@H]2C3=CC=C4C[C@@H](O)CC[C@]4(C)[C@H]3CC[C@]12C [Ergosterol]	insol.	50 mg/mL (≈ 126 mM)	32 mg/mL (≈ 80.7 mM)	1.5 mg/mL (≈ 3.78 mM)	
CC(C)CCC[C@@H](C)[C@H]1CC[C@H]2[C@@H]3CC=C4C[C@@H](O)CC[C@]4(C)[C@H]3CC[C@]12C [Cholesterol]	insol.	150 mg/mL (≈ 388 mM)	200 mg/mL (≈ 517 mM)	5 mg/mL (≈ 12.9 mM)	
C[C@]12C=CC(=O)C=C1CC[C@@H]1[C@@H]2[C@@H](O)C[C@@]2(C)[C@H]1CC[C@]2(O)C(=O)CO [Prednisolone]					solubility (organic solvent or mixture, thermodynamic from solid, Solubility (mg/ml) Methanol, methanol, room temperature (25° C.)): 33 mg/mL (≈ 91.6 mM)
CCC(C)n1ncn(-c2ccc(N3CCN(c4ccc(OCC5COC(Cn6cncn6)(c6ccc(Cl)cc6Cl)O5)cc4)CC3)cc2)c1=O (centres unmarked) [Itraconazole]	insol	60 mg/mL (≈ 85 mM)	500 mg/mL (≈ 709 mM)		solubility (oil or lipid, solubility of the drug in vegetable oils): ≤ 0.4 mg/mL; solubility at 18 h (organic solvent or mixture, thermodynamic from solid, solubility of itraconazole in chloroform): 350 mg/mL (≈ 496 mM); solubility at 18 h (organic solvent or mixture, thermodynamic from solid, solubility of itraconazole in methanol): 0.7 mg/mL (≈ 0.992 mM); SVE value (18 h): 500

Continued, in another order:

Solubility (mg/ml) Water	solubility [1]	solubility [2]	solubility [3]	SMILES	other results
insol				CC(=O)O[C@H]1C(=O)[C@@]2(C)[C@H]([C@H](OC(=O)c3ccccc3)[C@]3(O)C[C@H](OC(=O)[C@H](O)[C@@H](NC(=O)c4ccccc4)c4ccccc4)C(C)=C1C3(C)C)[C@]1(OC(C)=O)CO[C@@H]1C[C@@H]2O [Taxol]	
insol.				C[C@@H]1[C@H](O)[C@@H](C)/C=C/C=C/C=C/C=C/C=C/C=C/C=C/[C@H](O[C@@H]2O[C@H](C)[C@@H](O)[C@H](N)[C@@H]2O)C[C@@H]2O[C@](O)(C[C@@H](O)C[C@@H](O)[C@H](O)CC[C@@H](O)C[C@@H](O)CC(=O)O[C@H]1C)C[C@H](O)[C@H]2C(=O)O [Amphotericin]	Solubility (mg/ml) Chloroform: insol.; Solubility (mg/ml) Vitamin E: insol.
